Literature values in patent US7217714B1, “CCR5 modulators” (Agouron Pharmaceuticals, Inc., priority 1998, dated 2007).

B1: MIP-1α: "the macrophage inflammatory proteins (MIP) designated MIP-1α and MIP-1β" (protein, UniProt P10147 24-92, looked up)
C-C motif chemokine 3: SLAADTPTACCFSYTSRQIPQNFIADYFETSSQCSKPGVIFLTKRSRQVCADPSEEWVQKYVSDLELSA
B2: RANTES: "a protein which is regulated upon activation and is normal T-cell expressed and secreted (RANTES)" (protein, UniProt P13501 24-91, looked up)
C-C motif chemokine 5: SPYSSDTTPCCFAYIARPLPRAHIKEYFYTSGKCSNPAVVFVTRKNRQVCANPEKKWVREYINSLEMS
B3: MIP-1β: "the macrophage inflammatory proteins (MIP) designated MIP-1α and MIP-1β" (protein, UniProt P13236 24-92, looked up)
C-C motif chemokine 4: APMGSDPPTACCFSYTARKLPRNFVVDYYETSSLCSQPAVVFQTKRSKQVCADPSESWVQEYVYDLELN

Assays:
[1] = system: CXCR4 dependent primary and lab-adapted HIV viruses; conditions: susceptible cultures
[2] = system: primary HIV isolates
[3] = system: CCR5-tropic strains; conditions: Baba et al. PNAS 1999

Molecule | suppression of replication of primary HIV isolates [2] | also measured
c1cc(CN2CCCNCCNCCCNCC2)ccc1CN1CCCNCCNCCCNCC1 [AMD3100] | – | inhibition of infection by CXCR4 dependent HIV [1]: inhibit infection
SDF-1: "the chemokines RANTES, MIP-1α, MIP-1β, SDF-1 have been shown to suppress replication of primary HIV isolates" | suppress replication | –
Cc1ccc(-c2ccc3c(c2)C=C(C(=O)Nc2ccc(C[N+](C)(C)C4CCOCC4)cc2)CCC3)cc1.[Cl-] [TAK 779] | – | block of entry of CCR5-tropic strains [3]: blocks entry
B1 | suppress replication | –
B2 | suppress replication | –
B3 | suppress replication | –
